Reference: patent US11446287B2, “Compounds and methods for EP300 or CBP modulation and indications therefor” (Opna Immuno-Oncology SA, priority 2019, dated 2022)

Target: T1, Recombinant human BRD4 containing dual bromodomains (BRD4-BD12 (1-477)) (Homo sapiens, UniProt O60885)
T1 construct: Recombinant human BRD4 containing dual bromodomains (BRD4-BD12 (1-477)); made in house; host or cells: E. coli BL21-CodonPlus (DE3), modified pET vector
Experiment: BRD4 Alphascreen binding assay
Summary of the method: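 AlphaScreen proximity between Ni-chelate-bound BRD4-BD12 (1-477) and streptavidin-captured H4 K5/K8/K12/K16-acetyl peptide measured after 1 h room-temperature compound incubation and 30 min with 7.5 μg/ml beads. Buffer: 50 mM HEPES pH 7.5, 50 mM NaCl, 0.01% BSA, 0.01% Triton X-100; data plate-normalized and four-parameter fit for IC50.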

Structure (SMILES)	IC50 [µM]
Cc1noc(C)c1-c1cnc2c(c1)c(-c1ccc(C(=O)O)cc1OC(F)(F)F)cn2-c1cnc(N)nc1 [P-0320, 4-(1-(2-aminopyrimidin-5-yl)-5-(3,5-dimethylisoxazol-4-yl)-1H-pyrrolo[2,3-b]pyridin-3-yl)-3-(trifluoromethoxy)benzoic acid]	1 to 8
CCOc1nc(C(=O)O)ccc1-c1cn(C2CCOCC2)c2ncc(-c3c(C)noc3C)cc12 [P-0376, 5-(5-(3,5-dimethylisoxazol-4-yl)-1-(tetrahydro-2H-pyran-4-yl)-1H-pyrrolo[2,3-b]pyridin-3-yl)-6-ethoxypicolinic acid]	8 to 1000
Cc1noc(C)c1-c1cnc2c(c1)c(-c1c(Cl)cc(C(=O)O)cc1OC1CCC1)cn2C(C1CC1)C1CC1 [P-0356, 3-chloro-5-cyclobutoxy-4-(1-(dicyclopropylmethyl)-5-(3,5-dimethylisoxazol-4-yl)-1H-pyrrolo[2,3-b]pyridin-3-yl)benzoic acid]	1 to 8
CCOc1cc(C(=O)O)c(F)cc1-c1cn(-c2ccc(F)cc2F)c2ncc(-c3c(C)noc3C)cc12 [P-0330, 4-(1-(2,4-difluorophenyl)-5-(3,5-dimethylisoxazol-4-yl)-1H-pyrrolo[2,3-b]pyridin-3-yl)-5-ethoxy-2-fluorobenzoic acid]	1 to 8
CCn1cc(-n2cc(-c3ccc(C(=O)O)cc3OCC(F)F)c3cc(-c4c(C)noc4C)cnc32)c(C)n1 [P-0326, 3-(2,2-difluoroethoxy)-4-(5-(3,5-dimethylisoxazol-4-yl)-1-(1-ethyl-3-methyl-1H-pyrazol-4-yl)-1H-pyrrolo[2,3-b]pyridin-3-yl)benzoic acid]	8 to 1000
Cc1noc(C)c1-c1cnc2c(c1)c(-c1ccc(C3(C(=O)O)CC3)cc1)cn2C(c1ccccn1)C1CCCC1 (stereo not drawn) [P-0033, 1-(4-(1-(cyclopentyl(pyridin-2-yl)methyl)-5-(3,5-dimethylisoxazol-4-yl)-1H-pyrrolo[2,3-b]pyridin-3-yl)phenyl)cyclopropane-1-carboxylic acid]	1 to 8
Cc1noc(C)c1-c1cnc2c(c1)c(-c1c(Cl)cc(C(=O)O)cc1OCC(F)F)cn2-c1cnn(C(F)F)c1C [P-0352, 3-chloro-5-(2,2-difluoroethoxy)-4-(1-(1-(difluoromethyl)-5-methyl-1H-pyrazol-4-yl)-5-(3,5-dimethylisoxazol-4-yl)-1H-pyrrolo[2,3-b]pyridin-3-yl)benzoic acid]	1 to 8
Cc1noc(C)c1-c1cnc2c(c1)c(-c1ccc(C(=O)O)cc1OCC(F)F)cn2C(C1CC1)C1CC1 [P-0338, 4-(1-(dicyclopropylmethyl)-5-(3,5-dimethylisoxazol-4-yl)-1H-pyrrolo[2,3-b]pyridin-3-yl)-3-(2,2-difluoroethoxy)benzoic acid]	8 to 1000
COc1cc(C(=O)O)ncc1-c1cn(C(C2CC2)C2CC2)c2ncc(-c3c(C)noc3C)cc12 [P-0339, 5-(1-(dicyclopropylmethyl)-5-(3,5-dimethylisoxazol-4-yl)-1H-pyrrolo[2,3-b]pyridin-3-yl)-4-methoxypicolinic acid]	1 to 8
Cc1nn(C(F)F)cc1-n1cc(-c2ccc(C(=O)O)cc2OC2CCC2)c2cc(-c3c(C)noc3C)cnc21 [P-0351, 3-cyclobutoxy-4-(1-(1-(difluoromethyl)-3-methyl-1H-pyrazol-4-yl)-5-(3,5-dimethylisoxazol-4-yl)-1H-pyrrolo[2,3-b]pyridin-3-yl)benzoic acid]	8 to 1000
COc1nc(C(=O)O)ccc1-c1cn(C2CCOCC2)c2ncc(-c3c(C)noc3C)cc12 [P-0368, 5-(5-(3,5-dimethylisoxazol-4-yl)-1-(tetrahydro-2H-pyran-4-yl)-1H-pyrrolo[2,3-b]pyridin-3-yl)-6-methoxypicolinic acid]	8 to 1000
Cc1noc(C)c1-c1cnc2c(c1)c(-c1c(Cl)cc(C(=O)O)cc1OC1CC1)cn2C(C1CC1)C1CC1 [P-0363, 3-chloro-5-cyclopropoxy-4-(1-(dicyclopropylmethyl)-5-(3,5-dimethylisoxazol-4-yl)-1H-pyrrolo[2,3-b]pyridin-3-yl)benzoic acid]	1 to 8
Cc1noc(C)c1-c1cnc2c(c1)c(-c1c(Cl)cc(C(=O)O)cc1OC1CCC1)cn2[C@H]1CCOC1 [P-0361, (S)-3-chloro-5-cyclobutoxy-4-(5-(3,5-dimethylisoxazol-4-yl)-1-(tetrahydrofuran-3-yl)-1H-pyrrolo[2,3-b]pyridin-3-yl)benzoic acid]	8 to 1000
Cc1noc(C)c1-c1cnc2c(c1)c(-c1ccc(C(=O)O)cc1OC1CCC1)cn2-c1cnc(N2CCC2)nc1 [P-0347, 4-(1-(2-(azetidin-1-yl)pyrimidin-5-yl)-5-(3,5-dimethylisoxazol-4-yl)-1H-pyrrolo[2,3-b]pyridin-3-yl)-3-cyclobutoxybenzoic acid]	8 to 1000
CCOc1cc(C(=O)O)nc(OCC)c1-c1cn(-c2ccc(F)cc2F)c2ncc(-c3c(C)noc3C)cc12 [P-0329, 5-(1-(2,4-difluorophenyl)-5-(3,5-dimethylisoxazol-4-yl)-1H-pyrrolo[2,3-b]pyridin-3-yl)-4,6-diethoxypicolinic acid]	1 to 8
Cc1cc(C(=O)O)cc(OCC(F)F)c1-c1cn(C2CCOCC2)c2ncc(-c3c(C)noc3C)cc12 [P-0367, 3-(2,2-difluoroethoxy)-4-(5-(3,5-dimethylisoxazol-4-yl)-1-(tetrahydro-2H-pyran-4-yl)-1H-pyrrolo[2,3-b]pyridin-3-yl)-5-methylbenzoic acid]	1 to 8
Cc1noc(C)c1-c1cnc2c(c1)c(-c1ccc(C(=O)O)cc1OCC(F)F)cn2[C@H]1CCOC1 [P-0325, (S)-3-(2,2-difluoroethoxy)-4-(5-(3,5-dimethylisoxazol-4-yl)-1-(tetrahydrofuran-3-yl)-1H-pyrrolo[2,3-b]pyridin-3-yl)benzoic acid]	8 to 1000
Cc1noc(C)c1-c1cnc2c(c1)c(-c1ccc(C(=O)O)cc1OC1CC1)cn2C1CCOCC1 [P-0379, 3-cyclopropoxy-4-(5-(3,5-dimethylisoxazol-4-yl)-1-(tetrahydro-2H-pyran-4-yl)-1H-pyrrolo[2,3-b]pyridin-3-yl)benzoic acid]	8 to 1000
Cc1noc(C)c1-c1cnc2c(c1)c(-c1ccc(C(=O)O)cc1OC1CCC1)cn2C1CCOCC1 [P-0341, 3-cyclobutoxy-4-(5-(3,5-dimethylisoxazol-4-yl)-1-(tetrahydro-2H-pyran-4-yl)-1H-pyrrolo[2,3-b]pyridin-3-yl)benzoic acid]	8 to 1000
Cc1noc(C)c1-c1cnc2c(c1)c(-c1c(Cl)cc(C(=O)O)cc1OCC(F)F)cn2C(C1CC1)C1CC1 [P-0340, 3-chloro-4-(1-(dicyclopropylmethyl)-5-(3,5-dimethylisoxazol-4-yl)-1H-pyrrolo[2,3-b]pyridin-3-yl)-5-(2,2-difluoroethoxy)benzoic acid]	8 to 1000
COc1cc(C(=O)O)ncc1-c1cn(C2CCOCC2)c2ncc(-c3c(C)noc3C)cc12 [P-0362, 5-(5-(3,5-dimethylisoxazol-4-yl)-1-(tetrahydro-2H-pyran-4-yl)-1H-pyrrolo[2,3-b]pyridin-3-yl)-4-methoxypicolinic acid]	0.0001 to 1
